Experiments:
APP/PS1 mice = experiment: Contextual fear conditioning after i.c.v. infusion; assay type: in vivo, mouse; settings: VO-OHpic infusion
Description: APP/PS1 and wild-type mice were anesthetized with isofluorane, and i.c.v. delivery cannulas (brain alzet kit III) were implanted with a stereotaxic frame (KOPF Instruments) at the following coordinates according to the bregma: AP, −0.5 mm; ML, 1 mm; and DV, −2.2 mm. Osmotic minipumps (Alzet) were filled with artificial cerebrospinal fluid (aCSF) with or without PTEN inhibitor VO-OHpic (2.5 μM) and equilibrated in 0.9% NaCl at 37° C. for 48 hours. They were attached to the i.c.v. cannula tubing and subcutaneously implanted at the back. After 21 days, behavioral testing was started as described herein. […]
Fear conditioning. […] The animals' behavior was scored by an observer blind to the treatment condition. Using a time-sampling procedure every 2 seconds, each mouse was scored blindly as either freezing or active at the instant the sample was taken. […]
It was posited that if early Aβ-induced cognitive impairment results from a general synaptic bias toward LTD events (Selkoe (2002) Science 298:789-791), dampening this form of synaptic plasticity might prevent cognitive decay. Therefore, it was determined whether in vivo inhibition of PTEN, a lipid phosphatase that is involved in LTD (Jurado, et al. (2010) EMBO J. 29:2827-2840), would rescue cognitive deficits in APP/PS1 mice. […]

[1] = tested on: APPswe/lnd-expressing neurons; experiment: Paired whole-cell recording of AMPAR-mediated EPSCs in APPswe/lnd-expressing CA1 neurons of organotypic hippocampal slices; assay type: cell-based, rat; settings: 15 nM bPV(HOpic) or 50 nM VO-OHpic during expression
Description: The effect of recombinant protein expression on synaptic transmission was evaluated by simultaneous double whole-cell recordings from pairs of nearby infected and uninfected CA1 neurons, under voltage clamp, while stimulating presynaptic Schaffer collateral fibers (under this configuration, recombinant proteins are expressed exclusively in the postsynaptic neuron).
The different versions of APP (APPwt, APPswe/lnd APPMV) and EGFP were co-expressed using an internal ribosomal entry site (IRES) construct. The EGFP-tagged versions of PTEN have been described (Jurado, et al. (2010) EMBO J. 29:2827-2840). All constructs were prepared in pSinRep5 for expression using Sindbis virus. Recombinant proteins were expressed in hippocampal CA1 pyramidal neurons from organotypic slice cultures. Organotypic hippocampal slices were prepared from postnatal day 5-7 rats and cultured during 6-8 days.
The external solution (aCSF) contained 119 mM NaCl, 2.5 mM KCl, 1 mM NaH2PO4, 11 mM glucose, 26 mM NaHCO3, 4 mM MgCl2, 4 mM CaCl2, 100 μM picrotoxin and 2 μM 2-chloroadenosine, pH 7.4, and was gassed with 95% O2 and 5% CO2. […] Bipolar stimulating electrodes were placed over Schaffer collateral fibers between 250 and 300 μm from the CA1 recorded cells, and synaptic responses were evoked with single voltage pulses (200 μs, up to 30 V). […]

SMILES: O=C(O)c1ncccc1O.O=C(O)c1ncccc1O.[O]=[V][O-] [VO-OHpic]
- contextual fear conditioning performance (percentage freezing to the context) (APP/PS1 mice; APP/PS1 mice, P=0.002): significantly improved their performance
- contextual fear conditioning performance (percentage freezing to the context) (APP/PS1 mice; wild-type mice): without altering
- AMPAR-mediated EPSCs in APPswe/lnd-expressing neurons relative to uninfected cells [1]: no longer depressed
